Where “and” joins values, the source holds several entries; their conditions need not be identical. Equal entries are not always repeated.
Key:
recombinant ABP-20 = biological target: T1, recombinant ABP-20 (Prunus persica, UniProt O04011, DUP151-151); assay: NADH oxidase activity of IEF-purified recombinant ABP-20 (dNOX); type: biochemical
T1 construct: made in house; host or cells: E. coli BL21 (DE3), pET11b
Protocol: (§1) Oxidation of NADH was determined spectrophotometrically from the disappearance of NADH measured at 340 nm in a reaction mixture containing 25 mM Tris-MES (pH 7.2), 100 μM GSH, 1 mM KCN to inhibit mitochondrial oxidase activity, 150 μM NADH and the enzyme at 37° C. with temperature control (±0.5° C.) and stirring. Prior to assay, 1 μM reduced glutathione was added to reduce the protein in the presence of substrate. After 10 min, 0.03% hydrogen peroxide was added to reoxidize the protein under renaturing conditions and in the presence of substrate to start the reaction. Activities were measured using paired Hitachi U3210 or paired SLM Aminco 2000 spectrophotometers both with continuous recording. Assays were run for 1 min and were repeated on the same sample at intervals of 1.5 min for the times indicated. An extinction coefficient of 6.22 cm^−1 mM^−1 was used to determine specific activity.
Cells were centrifuged at 5,000 g for 6 min. Pellets were then resuspended in 20 mM Tris-HCl, pH 8.0, containing 0.5 mM PMSF, 1 mM benzamidine and 1 mM 6-aminocaproic and lysed by three passages through a French pressure cell (SLM Aminco) at 20,000 psi. Expression of the recombinant ABP-20 of about 20 kDa was confirmed by SDS-PAGE with silver staining. Transformed cells were stored at −80° C. in a standard glycerol stock solution. The recombinant proteins were further purified on Criterion IEF gels (Bio-Rad, Hercules, Calif.). The IEF gel was cut into seven equal segments. The pH represented by each slice was based on IEF standards (Bio-Rad). The slices were soaked in 15 mM Tris-Mes buffer, pH 7, at 4° C. for overnight with shaking. The gel-free extracts were assayed for ENOX activities as follows: […]

[1] = system: recombinant Arabidopsis ENOX1; assay: NADH oxidase activity of IEF-purified recombinant Arabidopsis ENOX1; type: biochemical
Protocol: Cells were centrifuged at 5,000 g for 6 min. Pellets were then resuspended in 20 mM Tris-HCl, pH 8.0, containing 0.5 mM PMSF, 1 mM benzamidine and 1 mM 6-aminocaproic and lysed by three passages through a French pressure cell (SLM Aminco) at 20,000 psi. Expression of the recombinant Arabidopsis ENOX1 of about 14 kDa was confirmed by SDS-PAGE with silver staining. Transformed cells were stored at −80° C. in a standard glycerol stock solution. The Arabidopsis ENOX1 proteins were further purified on Criterion IEF gels (Bio-Rad, Hercules, Calif.). The IEF gel was cut into seven equal segments. The pH represented by each slice was based on IEF standards (Bio-Rad). The slices were soaked in 15 mM Tris-Mes buffer, pH 7, at 4° C. for overnight with shaking. The gel-free extracts were assayed for ENOX1 activity.
as §1
IEF purified ENOX1 was concentrated to 0.7 mg/ml by using a Centricon concentrator (Millipore Corporation, Danvers, Mass.) fitted with a 10,000 nominal molecular weight limit ultracel YM membrane. Samples (50 μl) were combined with 1 μl of trifluoroacetic acid (TFA) in the presence or absence of 15 μl 10 mM bathocuproine. After 2 h of incubation at room temperature, the samples were dialyzed (Spectra/Pro Dialysis membrane, molecular weight cut-off 6-8,000, Spectrum Laboratories (Rancho Dominguez, Calif.) against 20 mM Tris-HCl, pH 8, at 4° C. overnight.

dNOX of soybean = assay: Stimulation of NOX activity of soybean plasma membranes (dNOX of soybean); type: biochemical; settings: 1 μM
recombinant human ENOX2 = biological target: T2, recombinant human ENOX2 (Homo sapiens, UniProt Q16206); assay: Inhibition of recombinant human ENOX2 assayed in parallel; type: biochemical; settings: read-out: inhibition of recombinant human ENOX2
T2 sequence (Q16206 1-610): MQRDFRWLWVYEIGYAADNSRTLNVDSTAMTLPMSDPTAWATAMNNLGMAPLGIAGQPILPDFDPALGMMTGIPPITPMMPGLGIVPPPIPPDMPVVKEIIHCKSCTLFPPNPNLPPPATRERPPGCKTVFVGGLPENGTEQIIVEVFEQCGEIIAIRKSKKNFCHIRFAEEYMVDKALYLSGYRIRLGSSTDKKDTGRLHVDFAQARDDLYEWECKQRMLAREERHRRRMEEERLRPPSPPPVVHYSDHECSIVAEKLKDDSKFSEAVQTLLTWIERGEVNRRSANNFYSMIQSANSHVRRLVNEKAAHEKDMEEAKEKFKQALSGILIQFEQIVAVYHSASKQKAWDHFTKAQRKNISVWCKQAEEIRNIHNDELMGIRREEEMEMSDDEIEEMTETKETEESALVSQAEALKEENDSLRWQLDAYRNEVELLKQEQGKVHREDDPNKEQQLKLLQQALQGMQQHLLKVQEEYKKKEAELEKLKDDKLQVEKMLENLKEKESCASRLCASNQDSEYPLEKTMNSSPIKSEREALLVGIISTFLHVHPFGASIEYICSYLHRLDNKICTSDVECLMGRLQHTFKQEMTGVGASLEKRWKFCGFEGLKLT
From the text: Simalikalactone D is a general ENOX1 inhibitor.

plasma membrane ENOX1 = assay: Plasma membrane ENOX1 activity with added cysteine; type: biochemical, soybean; settings: for ENOX1: +100 μM cysteine
soybeans = assay: Soybean field experiment with TR-III foliar spray, standability; type: in vivo; settings: 0.01 lb/A foliar spray; No TR-III plants severely lodged
From the text: FIG. 21. Pods per plant of soybeans in a field experiment comparing no TR-III (solid symbols) with 0.01 lb/A TR-III (open symbols, dashed lines) as a foliar spray applied July 3. FIG. 23. Standability of soybeans from the field experiment of FIG. 21. No TR-III plants (left) were severely lodged.

soybean shoots = assay: Shoot growth of excised soybean shoots in TR-III solutions; type: in vivo; settings: narrow range, FIG. 18
From the text: FIG. 18. As in FIG. 17, except untreated seeds were germinated and excised shoots were transferred to TR-III solutions of different concentrations prepared in water.

375 NR soybeans = assay: TR-III spray, greenhouse soybeans, plant height above cotyledons; type: in vivo, soybean; set-up: Plant height above cotyledons: unit not given beside the values; settings: for Plant height above cotyledons: single experiments, 10 days after spraying
soybean plants = assay: TR-III spray, greenhouse soybeans from untreated seed, epicotyl enlargement; type: in vivo
From the text: FIG. 20. As in FIG. 19, except plants were from untreated seed and sprayed with different rates of TR-III.

dNOX (ABP-20) [2] = biological target: T3, dNOX (ABP-20) (Prunus persica, UniProt O04011, C44A/DUP151-151); assay: DTDP (protein disulfide-thiol) interchange of dNOX (ABP-20) site-directed mutants; type: biochemical; settings: versus wild type
T3 construct: made in house; host or cells: E. coli BL21 (DE3), pET11b (as for the unmodified protein; not repeated for the mutants)
T3 sequence (O04011 other isoform, or with tags, fused parts or gaps C44A/DUP151-151): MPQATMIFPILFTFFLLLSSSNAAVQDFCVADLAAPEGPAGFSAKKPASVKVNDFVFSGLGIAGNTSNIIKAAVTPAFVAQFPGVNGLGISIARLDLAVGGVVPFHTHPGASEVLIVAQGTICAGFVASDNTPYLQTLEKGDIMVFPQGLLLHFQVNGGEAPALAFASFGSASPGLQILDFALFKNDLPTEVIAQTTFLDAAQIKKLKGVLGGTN
Protocol: (§2) Protein disulfide-thiol interchange was determined spectrophotometrically from the increase in absorbance at 340 nm resulting from the cleavage of dithiodipyridine (DTDP (Morré, D. J., Gomez-Rey, M. L., Schramke, C., Em, O., Lawler, J., Hobeck, J. and Morré, D. M. 1999. Mol. Cell. Bochem. 200: 7-13). DTDP cleavage was buffered (50 mM Tris-MES, pH 7). The assay was preincubated (1 h at room temperature) with 0.5 μmoles 2,2′-dithiodipyridine (DTDP) in 5 μl of DMSO to react with endogenous reductants present with the plasma membranes. After 10 min, a further […] DTDP were added in 35 μl DMSO to start the reaction. The final reaction volume was […]. The reaction was monitored from the increase in absorbance at 340 nm. Specific activities were calculated using a milimolar absorption coefficient of 6.21.
(§3) Amino acids indicated were replaced by alanines by site-directed mutagenesis according to Braman et al. (Braman, J., Papworth, C. and Greener, A. 1996. Methods Mol. Biol. 57:32-44). Numbered amino acids and nucleotide positions of splice variant products refer to numbers assigned to amino acids of the full length transcript

dNOX (ABP-20) [3] = assay: as above; type: biochemical
Protocol: as §2, §3

dNOX (ABP-20) [4] = biological target: T3, dNOX (ABP-20); assay: NADH oxidation of dNOX (ABP-20) site-directed mutants; type: biochemical; settings: versus wild type
Protocol: as §1, §3

dNOX (ABP-20) [5] = assay: as above; type: biochemical
Protocol: as §1, §3

O=C(O)COc1ccc(Cl)cc1Cl [2,4-dichlorophenoxyacetic acid]
average specific activity (recombinant ABP-20; 1 μM auxin, IEF-purified fractions): ~0.6±0.2 μmoles/min/mg protein | NADH oxidase activity (recombinant ABP-20; addition 1 μM, average of 3 determinations ± SD, None = 0.1 ± 0.08): 0.8 ± 0.2 µmol/min/mg | optimum concentration for activation (recombinant ABP-20; higher concentration less effective): about 1 μM | NADH oxidase activity ([1]; addition 1 μM, average of 3 determinations ± SD, None = 2.7 ± 0.4): 3.7 ± 0.1 µmol/min/mg | Effect on ENOX1 activity eluted from the IEF gel ([1]; concentrations of Table 5): without effect | stimulation of NOX activity of soybean plasma membranes (dNOX) (dNOX of soybean): approximately two-fold

Oc1ccc(C2=Cc3ccc(O)cc3OC2)cc1 [Phenoxodiol]
inhibition at 10 µM (recombinant human ENOX2): > 90%

N[C@@H](CS)C(=O)O [TR-III, cysteine]
response of plasma membrane ENOX1 activity to added cysteine (plasma membrane ENOX1; 100 μM, both ST-109-2-4 and Williams 82): about 12% | ENOX1 (plasma membrane ENOX1; plasma membranes of Williams 82 ISU, −cysteine 0.060 ± 0.003): 0.072 ± 0.003 μmoles/min/mg protein | ENOX1 (plasma membrane ENOX1; plasma membranes of transgenic ST-109-2-4, −cysteine 0.110 ± 0.004): 0.123 ± 0.005 μmoles/min/mg protein | Stimulation of NADH oxidation ([1]; recombinant protein expressed in bacteria, FIG. 14): specific for maximum (3) | Standability (lodging) (soybeans): did not lodge | concentration range stimulating shoot growth (soybean shoots): around 10^−7 M | Plant height above cotyledons, Ave + MAD (375 NR soybeans; spray 0.001 lb/A, 0 lb/A: 13.6 ± 0.3): 14.7 ± 0.1 | Plant height above cotyledons (375 NR soybeans; spray 0.001 lb/A, 0 lb/A: 13.3, 13.9): 14.8 and 14.6 | Plant height above cotyledons, Ave + MAD (375 NR soybeans; spray 0.01 lb/A): 14.4 ± 0.1 | Plant height above cotyledons (375 NR soybeans; spray 0.01 lb/A): 14.3 and 14.5 | Plant height above cotyledons, Ave + MAD (375 NR soybeans; spray 0.1 lb/A): 15.2 ± 0.7 | Plant height above cotyledons (375 NR soybeans; spray 0.1 lb/A): 14.4 and 15.9 | Epicotyl enlargement (soybean plants; spray 0.001 or 0.1 lb/A): little or no effect | Epicotyl enlargement (soybean plants; spray 0.01 lb/A): Epicotyl enlargement was observed

B1: C44A: ABP-20 with C44 replaced by alanine (CKK motif) (protein, UniProt O04011 24-214, looked up, variant C44A)
Auxin-binding protein ABP20: AVQDFCVADLAAPEGPAGFSAKKPASVKVNDFVFSGLGIAGNTSNIIKAAVTPAFVAQFPGVNGLGISIARLDLAVGGVVPFHTHPGASEVLIVAQGTICAGFVASDNTPYLQTLEKGDIMVFPQGLLHFQVNGGEAPALAFASFGSASPGLQILDFALFKNDLPTEVIAQTTFLDAAQIKKLKGVLGGTN
reduction of protein disulfide-dithiol interchange activity (dNOX (ABP-20) [2]): 81% | DTDP Interchange (dNOX (ABP-20) [3]): 0.02 ± 0.01 μmoles/min/mg protein | reduction of NADH oxidation activity (dNOX (ABP-20) [4]): 81% | NADH Oxidation (dNOX (ABP-20) [5]): 0.15 ± 0.05 μmoles/min/mg protein

B2: None (Wild Type): recombinant auxin-activated ENOX protein ABP-20 (Prunus persica), SEQ ID NO: 8, unmodified (protein, listed as Prunus persica)
chain: MPQATMIFPILFTFFLLLSSSNAAVQDFCVADLAAPEGPAGFSCKKPASVKVNDFVFSGLGIAGNTSNIIKAAVTPAFVAQFPGVNGLGISIARLDLAVGGVVPFHTHPGASEVLIVAQGTICAGFVASDNTPYLQTLEKGDIMVFPQGLLLHFQVNGGEAPALAFASFGSASPGLQILDFALFKNDLPTEVIAQTTFLDAAQIKKLKGVLGGTN
modifications: DISULFID (29)..(44); BINDING (59)..(64); BINDING (106)..(108); BINDING (113)..(113); BINDING (150)..(152)
DTDP Interchange (dNOX (ABP-20) [3]): 0.9 ± 0.05 μmoles/min/mg protein | NADH Oxidation (dNOX (ABP-20) [5]): 0.8 ± 0.1 μmoles/min/mg protein
